Results reported in patent US8710071B2, “Compounds, compositions and methods for reducing lipid levels” (CVI Pharmaceuticals Limited, priority 2008, dated 2014).
Entries after “also recorded” stand apart in the source; their conditions may differ.

Assays:
ERK = ERK activation in HepG2 cells, Western blot with anti-phosphorylated ERK; type: cell-based, human; settings: 20 μg/mL, 0.5, 2, or 8 hours (FIG. 5)
Description: HepG2 cells cultured in 60-mm dishes were treated with various compounds at a concentration of 15 μg/ml for 2 hours. Total cell lysate was isolated and 50 μg of protein was separated on SDS-PAGE and transferred to nitrocellulose membrane.
HepG2 cells were treated with 20 μg/mL 14R,13S-(+)-CRDL and 14R-(+)-THP respectively for 0.5, 2, or 8 hours. Cells were then lysed. After protein quantitation using the BCA™ protein assay reagent (PIERCE), 50 μg protein from each sample was subjected to SDS-PAGE, followed by Western blotting using anti-phosphorylated ERK (Cell Signaling) and subsequently reprobed with antibody against β-actin.

LDLR mRNA [1] = assay: LDLR mRNA expression in HepG2 cells, semi-quantitative RT-PCR; type: cell-based, human; settings: indicated doses, 8 hours, semi-quantitative RT-PCR (FIG. 3)
Description: HepG2 cells obtained from American Tissue Culture Collection (Manassas, Va., USA) were seeded in 6-well culture plates at a density of 0.8×10^6 cells/well cultured in EMEM containing 0.5% FBS and were treated with each purified compound at indicated doses for 8 hours. Total RNA was isolated, and 2 μg per sample was reverse transcribed with random primers using M-MLV (Promega) at 37° C. for 1 hour. PCR was carried out at 94° C. for 30 sec, 60° C. for 30 sec, and 72° C. for 30 sec with initial activation of the enzyme at 94° C. for 1 minute. Thirty cycles were performed for LDLR and GAPDH. PCR was performed using primers HLDLR-up and HLDLR-lo for LDLR and primers HGAPDH-up and HGAPDH-lo for GAPDH. The PCR products were separated on a 1% agarose gel and the band intensity was quantitated. LDLR mRNA levels were corrected by measuring GAPDH mRNA levels.
Specific stereochemical requirements of +1-THP in the upregulation of LDLR mRNA expression were determined by a similar experiment. HepG2 cells were treated with the pure 14R-(+)-THP or the pure 14S-(−)-THP at the indicated concentrations for 24 hours. The levels of LDLR mRNA and GAPDH mRNA in untreated and the compound-treated HepG2 cells were assessed by semi-quantitative RT-PCR.

HepG2 cells = assay: DiI-LDL uptake (LDLR ligand uptake activity) in HepG2 cells; type: cell-based, human; settings: for Activity on DiI-LDL uptake: 20 hours; for Activity in LDL uptake at 40 uM (relative to control): 20 hours (second symbol of the cell); for Activity in LDL uptake at 10 uM (relative to control): 20 hours (first symbol of the cell)
Description: HepG2 cells (2×10^5 cells/well) in 24-well culture plates were treated with various compounds at indicated concentrations for 20 hours. The fluorescent 1.1′-dioctadecyl-3,3,3′,3′-tetramethylindocarbocyanin perchlorate (DiI-LDL) (Biomedical Technologies, Stoughton, Mass.) at a concentration of 2 μg/mL was added to cells at the end of treatment. After 4 hours, the medium was removed, cells were washed with cold PBS, and were examined immediately under a fluorescent microscope (Nikon) at 200× amplification. The fluorescent intensity in compound-treated cells was compared to that in untreated control cells. […] In these experiments berberine chloride was used for comparison.
The combined beneficial effects of these novel compounds on elevation of LDLR mRNA levels likely through the mechanism of mRNA stabilization and their inhibitory activity towards PCSK9, the secreted protease that degrades LDLR protein, result in strong increases in LDL ligand uptake activity through increased receptor surface abundance. […] Briefly, HepG2 cells (2×10^5 cells/well) in 24-well culture plates were treated with various compounds at 10 and 40 uM concentrations for 20 hours. The fluorescent 1.1′-dioctadecyl-3,3,3′,3′-tetramethylindocarbocyanin perchlorate (DiI-LDL) (Biomedical Technologies, Stoughton, Mass.) at a concentration of 2 μg/ml was added to cells at the end of treatment. After 4 hours, the medium was removed; cells were washed with cold PBS, and were examined immediately under a fluorescent microscope (Nikon) at 200× amplification. The fluorescent intensity in compound-treated cells was compared to that in untreated control cells. […]

[2] = system: acetyl coenzyme A carboxylase (ACC); assay: ACC phosphorylation in HepG2 cells, Western blot; type: cell-based, human; settings: 20 μg/ml, 0.5, 2, or 8 hours (FIG. 6)
Description: HepG2 cells were treated with 20 μg/ml14R-(+)-THP for 0.5, 2, or 8 hours. Cells were lysed, and 50 μg protein from each sample was subjected to SDS-PAGE, followed by Western blotting using anti-phosphorylated ACC (Cell Signaling) and subsequently reprobed with antibody against β-actin.
Cells were harvested after 1, 2, and 3 days treatment and western blot analysis was conducted using antibodies directed to LDLR and PCSK9. Chicken anti-LDLR was purchased from Abeam, the mouse anti-PCSK9 was purchased from Cayman Chemicals, and anti-pACC was purchased from Cell Signaling.

hyperlipidemic rabbits = assay: Lipid lowering effects and blood chemistry in hyperlipidemic rabbits; settings: day 14, doses increased after day 7 to 60 mg/kg (128(+)/128(−)) and 10 mg/kg (SMV/ATV), mean ± SD
Description: Forty-two male Japanese rabbits were fed the cholesterol enriched rabbit diet for two weeks to induce hypercholesterolemia. […] Serum samples were collected at day 0 (before the drug treatment) and day 7. […] All tested animals were sacrified at the end of a total of 14 days treatment and serum samples were analyzed for TC, LDL-C, TG, and HDL-C. In addition to lipid profiles, a number of biochemical parameters were also analyzed to aseesee the effects of drug treatments on liver function, muscle function, kidney function, and heart function.

[3] = system: Wister male rats under a high fat and high cholesterol diet; assay: Lipid lowering effects of (14R,13S)-CRDL hydrochloride salt in Wister rats; type: in vivo, rat; settings: 75 mg/kg daily orally
Description: Male Wister rats were used as an animal model to examine the in vivo effects of (14R,13S)—CRDL in plasma lipid levels.
In one experiment, 18 Wister male rats under a high fat and high cholesterol diet were divided into 2 groups. One group was given (14R,13S)—CRDL hydrochloride salt orally at a daily dose of 75 mg/kg by an orogastric tube for 4 weeks, and the control group received daily treatment of equal amount of vehicle (0.1 M sodium phosphate, pH 3.5). Serum lipid levels were measured weekly.
At the end of treatment, Rats were sacrificed and blood and sera were collected to measure several critical parameters for liver function and kidney function. […] Kidney function and blood glucose level were not changed by the treatment.

LDLR mRNA [4] = assay: LDLR mRNA expression in HepG2 cells, quantitative real-time RT-PCR; type: cell-based, human; settings: Homo sapiens, 24 hours, mean ± s.d.; for fold induction at 10 µM: read-out: Activity on LDLR mRNA at 10 uM (fold of control); for fold induction at 40 µM: read-out: Activity on LDLR mRNA at 40 uM (fold of control)
Description: Activities of some compounds of Formulas I, II, III, and IV on LDLR mRNA expression were determined. HepG2 cells were treated with new compounds individually at a dose less than or equal to 10 μM for 24 hours. Total RNA was harvested for quantitative real-time RT-PCR analysis using the method described in Example 16B. […] In these experiments, berberine chloride was included for comparison.
The time-dependent effects of compounds of Formula I, II, III, and IV on the upregulation of LDLR mRNA and the inhibition of PCSK9 mRNA expression were examined (Horton J D, Cohen J C, Hobbs H I T. “Molecular biology of PCSK9: its role in LDL metabolism” TRENDS in Biochemical Sciences 2007; 32:71-77). HepG2 cells were treated with new compounds individually at 20 uM dose for 1 day, 2 day, and 3 days. Total RNA was isolated and 2 μg was used to generate cDNA in a reaction containing random primers and M-MLV at 37° C. for 1 hour in a volume of 25 μl. Real-time PCR was performed on the cDNA using MCEP REALPLEX 2 SYSTEM (Eppendorf) and Universal MasterMix (Applied Biosystems). Human LDLR, PCSK9, and GAPDH Pre-Developed TaqMan Assay Reagents (Applied Biosystems) were used to assess the levels of mRNA expressions in HepG2. The levels of LDLR mRNA or PCSK9 mRNA were normalized to that of GAPDH. Each RNA samples was assayed in triplicate. The abundance of LDLR mRNA or PCSK9 mRNA in untreated cells was defined as 1, and the amounts of LDLR mRNA or PCSK9 from compound-treated cells were plotted relative to that value (FIG. 10). The data shown are mean±s.d.
Total RNA was harvested for quantitative real-time RT-PCR analysis using method described in Examples 16B.
The effects of 23 compounds on the mRNA expressions of LDLR and PCSK9 were examined using quantitative real-time RT-PCR assays. HepG2 cells were treated with various compounds at 10 and 40 uM concentrations for 24 hours. Total RNA was isolated and […] was used to generate cDNA in a reaction containing random primers and M-MLV at 37° C. for 1 h in a volume of 25 μl. Real-time PCR was performed on the cDNA using MCEP REALPLEX 2 SYSTEM (Eppendorf) and Universal MasterMix (Applied Biosystems). Human LDLR, PCSK9, and GAPDH Pre-Developed TaqMan Assay Reagents (Applied Biosystems) were used to assess the levels of mRNA expressions in HepG2. The levels of LDLR and PCSK9 mRNA were normalized to that of GAPDH. Each RNA samples was assayed in duplicate. The fold activity was calculated by dividing mRNA abundance in compound treated cells with that of control.

`COc1cc2c(cc1OC)[C@H]1[C@@H](C)c3ccc(OC)c(OC)c3CN1CC2` [14R,13S-(+)-CRDL, 14R,13S-(+)-corydaline] was tested, and the “activation of ERK” value (ERK) was “activation of ERK”, the “LDLR mRNA expression” value (LDLR mRNA [1]) was “potent and dose-dependent effects” and the “Activity on DiI-LDL uptake” value (HepG2 cells; B: compound dose ≦ 40 μM) was “++”.
`COc1cc2c(cc1O)CCN1Cc3c(ccc(OC)c3OC)CC21` (stereo not drawn) [14R-(+)-CRPM, 14R-(+)-corypalmine] was tested, and the “LDLR mRNA expression” value (LDLR mRNA [1]) was “potent and dose-dependent effects” and the “Activity on DiI-LDL uptake” value (HepG2 cells; A: compound dose ≦ 10 μM) was “++”.
`COc1cc2c(cc1OC)[C@H]1Cc3ccc(OC)c(OC)c3CN1CC2` [14R-(+)-THP, 14R-(+)-tetrahydropalmatine] was tested, and the “activation of ERK” value (ERK) was “activation of ERK”, the “LDLR mRNA expression” value (LDLR mRNA [1]) was “potent and dose-dependent effects” and the ACC phosphorylation [2] was “induction of ACC phosphorylation”. The “Activity on DiI-LDL uptake” value (HepG2 cells; B: compound dose ≦ 40 μM) was “++”.
For `CC(C)c1c(C(=O)Nc2ccccc2)c(-c2ccccc2)c(-c2ccc(F)cc2)n1CC[C@@H](O)C[C@@H](O)CC(=O)O` [ATV, atorvastatin, reference compound], the “serum total cholesterol levels, treatment day 14” value (hyperlipidemic rabbits) was 33.9 ± 6.5.
With `COc1cc2c(cc1OC)[C@H]1[C@@H](C)c3ccc(OC)c(OC)c3CN1CC2` [CRDL, corydaline] the “serum levels of AST and ALT (liver function)” value ([3]; end of 4-week treatment, versus control group, 75 mg/kg) was “liver function was not damaged; also recorded: statistically lower” and the adverse effects ([3]; entire 4-week treatment) was “No any adverse effects were observed”.
With `COc1ccc2c(c1)CCN1Cc3c(ccc(OC)c3OS(=O)(=O)c3ccccc3)CC21` (stereo not drawn) [Compound 115, 3,10-Dimethoxy-5,6,7,8,13,13a-hexahydroisoquinolino[2,1-b]isoquinolin-9-yl benzenesulfonate] the fold induction at 10 µM (LDLR mRNA [4]) was 0.51 ± 0.11, the fold induction at 40 µM (LDLR mRNA [4]) was 2.65 ± 0.06 and the “Activity in LDL uptake at 40 uM (relative to control)” value (HepG2 cells) was “+++”.
`COc1ccc2c(c1OS(=O)(=O)c1ccccc1)CN1CCc3cc4c(cc3C1C2)OCCO4` (stereo not drawn) [Compound 116, 11-Methoxy-6,7,8,9,14,14a-hexahydro-2H,3H-1,4-dioxano[5,6-g]isoquinoluio[3,2-a]isoquinolin-10-yl benzenesulfonate] showed a fold induction at 10 µM (LDLR mRNA [4]) of 1.41 ± 0.04 and a fold induction at 40 µM (LDLR mRNA [4]) of 7.19 ± 1.29.
For `COc1ccc2c(c1OS(=O)(=O)c1ccccc1)CN1CCc3cc(C)ccc3C1C2` (stereo not drawn) [Compound 121, 10-Methoxy-3-methyl-5,6,7,8,13,13a-hexahydroisoquinolino[2,1-b]isoquinofin-9-yl benzenesulfonate], the “Activity in LDL uptake at 10 uM (relative to control)” value (HepG2 cells) was “+++” and the “Activity in LDL uptake at 40 uM (relative to control)” value (HepG2 cells) was “+”.
`COc1cc2c(cc1C(=O)NCCO)C1Cc3ccc(OC)c(OS(=O)(=O)c4ccccc4)c3CN1CC2` (stereo not drawn) [Compound 137, 2-[N-(2-hydroxyethyl)carbamoyl]-3,10-dimethoxy-5,6,7,8,13,13a-hexahydroisoquinolino[2,1-b]isoquinolin-9-yl benzenesulfonate] was tested, and the “Activity in LDL uptake at 10 uM (relative to control)” value (HepG2 cells) was “+” and the “Activity in LDL uptake at 40 uM (relative to control)” value (HepG2 cells) was “+++”.
With `COc1cc2c(cc1OCCO)CCN1Cc3c(ccc(OC)c3OS(=O)(=O)c3ccccc3)CC21` (stereo not drawn) [Compound 138, 3-(2-Hydroxyethoxy)-2,10-dimethoxy-5,6,7,8,13,13a-hexahydroisoquinolino[2,1-b]isoquinolin-9-yl benzenesulfonate] the “Activity in LDL uptake at 10 uM (relative to control)” value (HepG2 cells) was “+” and the “Activity in LDL uptake at 40 uM (relative to control)” value (HepG2 cells) was “+++”.
With `CCC(C)(C)C(=O)O[C@H]1C[C@@H](C)C=C2C=C[C@H](C)[C@H](CC[C@@H]3C[C@@H](O)CC(=O)O3)[C@H]21` [SMV, simvastatin, reference compound] the “serum total cholesterol levels, treatment day 14” value (hyperlipidemic rabbits) was 26.2 ± 5.5.
